Measured values: article PMC5244594 (Biotechnology for Biofuels, 2017)

Target: T1, GLT-1 (Neurospora crassa, UniProt Q1K4S3)
T1 construct: gene NCU01633
Experiment: radiolabeled glucose uptake in S. cerevisiae EBY.VW4000
Assay type: cell-based
Conditions: labelled compound; transport into whole yeast cells expressing the eGFP fusion

T1 sequence (Q1K4S3 entry or part of it): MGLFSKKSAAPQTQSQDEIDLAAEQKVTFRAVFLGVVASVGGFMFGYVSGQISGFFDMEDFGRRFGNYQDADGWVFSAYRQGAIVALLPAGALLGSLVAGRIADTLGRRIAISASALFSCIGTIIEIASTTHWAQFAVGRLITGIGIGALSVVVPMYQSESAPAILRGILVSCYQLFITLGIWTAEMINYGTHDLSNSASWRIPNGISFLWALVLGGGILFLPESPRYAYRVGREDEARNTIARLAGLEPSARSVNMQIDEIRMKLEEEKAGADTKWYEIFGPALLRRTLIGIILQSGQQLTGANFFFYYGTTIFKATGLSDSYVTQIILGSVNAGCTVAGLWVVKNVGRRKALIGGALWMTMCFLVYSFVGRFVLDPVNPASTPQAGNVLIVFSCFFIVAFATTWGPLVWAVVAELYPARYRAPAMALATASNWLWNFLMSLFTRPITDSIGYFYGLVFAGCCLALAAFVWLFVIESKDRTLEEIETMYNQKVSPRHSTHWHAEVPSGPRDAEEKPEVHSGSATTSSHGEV

Km: 18.4 ± 3.38 mM
Structure (SMILES): OC[C@H]1OC(O)[C@H](O)[C@@H](O)[C@@H]1O (stereo partly shown) [glucose]
